Results as given in patent US20120101093A1, “SUBSTITUTED IMIDAZO[1,2-A]PYRIDINE DERIVATIVES, PHARMACEUTICAL COMPOSITIONS, AND METHODS OF USE AS BETA-SECRETASE INHIBITORS” (HIGH POINT PHARMACEUTICALS, LLC, priority 2009, published 2012).

Target: T1, BACE-1 enzyme (Homo sapiens, UniProt P56817)
T1 construct: purchased R & D Systems 931AS
Test: BACE Fluorescence Resonance Energy Transfer (FRET) Assay
Assay type: biochemical
Conditions: pH 4-4.5, 30 min pre-incubation, about 1.5 hours reaction
Method: BACE Fluorescence Resonance Energy Transfer (FRET) Assay
In the following assay, the proteolytic activity of BACE is measured by observing cleavage of a fluorescent group from a peptide substrate containing a rhodamine fluorescent donor and a quenching acceptor.
The inhibitory activity of compounds of Formula (I) may be compared to a statine derived control inhibitor STA200 (MP Biomedical Cat. #STA-200). The cleavage reaction occurs when a BACE-1 substrate (Invitrogen, Cat. #P2986) was added to a reaction mixture containing BACE-1 enzyme (R & D Systems, Cat. #931AS) and allowed to proceed for about 1.5 hours. Fluorescence, used as a marker of BACE activity, is monitored using 540 nm excitation and 585 nm emission wavelengths (Envision, Perkin Elmer).
A typical assay reaction contains BACE-1 enzyme—in assay buffer (50 mM sodium acetate, pH 4-4.5, 0.01% CHAPS (3-[(3-Cholamidopropyl)dimethylammonio]-1-propanesulfonate), 0.0125% TritonX-100, 0.006% EDTA) which is pre-incubated for 30 minutes with test compound in 7.5% DMSO. The reaction is initiated with the addition of BACE-1 substrate in assay buffer and allowed to proceed for about 1.5 hours at room temperature. Assays are conducted in black 384-well microtiter plates and scanned at room temperature using 540 nm excitation and 585 nm emission wavelengths.
In some instances, the percent inhibition at a given concentration is reported instead of the IC50.

T1 sequence (P56817 46-457 limits assumed): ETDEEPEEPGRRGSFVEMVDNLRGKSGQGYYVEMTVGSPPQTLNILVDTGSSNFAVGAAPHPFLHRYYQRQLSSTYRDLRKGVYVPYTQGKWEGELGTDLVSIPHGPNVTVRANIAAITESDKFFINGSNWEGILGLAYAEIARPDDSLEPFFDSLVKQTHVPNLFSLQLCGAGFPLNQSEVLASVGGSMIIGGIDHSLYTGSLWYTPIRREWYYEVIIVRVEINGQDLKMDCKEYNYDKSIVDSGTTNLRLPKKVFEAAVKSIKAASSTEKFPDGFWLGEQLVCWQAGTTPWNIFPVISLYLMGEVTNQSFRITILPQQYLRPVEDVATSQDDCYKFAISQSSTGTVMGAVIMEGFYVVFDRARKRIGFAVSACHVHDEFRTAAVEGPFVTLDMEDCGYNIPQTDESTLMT

| Structure (SMILES) | IC50 [µM] |
| --- | --- |
| COCCNc1cc(F)cn2cc(C(=O)Nc3nc4cc(-c5cc(F)cc(Cl)c5)ccc4[nH]3)nc12 [Example 138, 6-Fluoro-8-(2-methoxy-ethylamino)-imidazo[1,2-a]pyridine-2-carboxylic acid [5-(3-chloro-5-fluoro-phenyl)-1H-benzoimidazol-2-yl]-amide] | 1.27 |
| Cc1c(N2CC[C@@H](O)C2)ccc2nc(C(=O)Nc3nc4cc(-c5cc(F)cc(Cl)c5)ccc4[nH]3)cn12 [Example 5, 6-((R)-3-Hydroxy-pyrrolidin-1-yl)-5-methyl-imidazo[1,2-a]pyridine-2-carboxylic acid [5-(3-chloro-5-fluoro-phenyl)-1H-benzoimidazol-2-yl]-amide] | 0.49 |
| Cc1cccc2nc(C(=O)Nc3nc4cc(-c5cccc(S(C)(=O)=O)c5)ccc4[nH]3)cn12 [Example 74, 5-Methyl-imidazo[1,2-a]pyridine-2-carboxylic acid [5-(3-methanesulfonyl-phenyl)-1H-benzoimidazol-2-yl]-amide] | 1.72 |
| O=C(Nc1nc2cc(-c3cc(F)cc(Cl)c3)ccc2[nH]1)c1cn2c(N3CC[C@@H](O)C3)cccc2n1 [Example 8, 5-((R)-3-Hydroxy-pyrrolidin-1-yl)-imidazo[1,2-a]pyridine-2-carboxylic acid [5-(3-chloro-5-fluoro-phenyl)-1H-benzoimidazol-2-yl]-amide] | 0.2 |
| CCCc1cccc2nc(C(=O)Nc3nc4cc(-c5cccc(C(F)(F)F)c5)ccc4[nH]3)cn12 [Example 220, 5-propyl-N-{5-[3-(trifluoromethyl)phenyl]-1H-benzimidazol-2-yl}imidazo[1,2-a]pyridine-2-carboxamide] | 0.38 |
| CCOc1ccc(-c2ccc3[nH]c(NC(=O)c4cn5cccc(C)c5n4)nc3c2)cc1F [Example 81, 8-Methyl-imidazo[1,2-a]pyridine-2-carboxylic acid [5-(4-ethoxy-3-fluoro-phenyl)-1H-benzoimidazol-2-yl]-amide] | 1.72 |
| Cc1cccc2nc(C(=O)Nc3nc4cc(OC5CCCC5)ccc4[nH]3)cn12 [Example 30, 5-Methyl-imidazo[1,2-a]pyridine-2-carboxylic acid (5-cyclopentyloxy-1H-benzoimidazol-2-yl)-amide] | 4.15 |
| O=C(Nc1nc2cc(-c3cc(F)cc(Cl)c3)ccc2[nH]1)c1cn2ccccc2n1 [Example 116, Imidazo[1,2-a]pyridine-2-carboxylic acid [5-(3-chloro-5-fluoro-phenyl)-1H-benzoimidazol-2-yl]-amide] | 0.38 |
| Cc1cccc2nc(C(=O)Nc3nc4cc(-c5ccc(O)c(F)c5)ccc4[nH]3)cn12 [Example 103, 5-Methyl-imidazo[1,2-a]pyridine-2-carboxylic acid [5-(3-fluoro-4-hydroxy-phenyl)-1H-benzoimidazol-2-yl]-amide] | 1.74 |
| O=C(Nc1nc2cc(-c3cccc(C(F)(F)F)c3)ccc2[nH]1)c1cn2cc(Cl)ccc2n1 [Example 34, 6-Chloro-imidazo[1,2-a]pyridine-2-carboxylic acid [5-(3-trifluoromethyl-phenyl)-1H-benzoimidazol-2-yl]-amide] | 2.53 |
| Cc1cccn2cc(C(=O)Nc3nc4cc(-c5ccccc5)ccc4[nH]3)nc12 [Example 29, 8-Methyl-imidazo[1,2-a]pyridine-2-carboxylic acid (5-phenyl-1H-benzoimidazol-2-yl)-amide] | 1.29 |
| Cc1c(N2CC[C@H](O)C2)ccc2nc(C(=O)Nc3nc4cc(-c5cc(F)cc(Cl)c5)ccc4[nH]3)cn12 [Example 235, 6-((S)-3-Hydroxy-pyrrolidin-1-yl)-5-methyl-imidazo[1,2-a]pyridine-2-carboxylic acid [5-(3-chloro-5-fluoro-phenyl)-1H-benzoimidazol-2-yl]-amide] | 0.69 |
| CCc1cccc2nc(C(=O)Nc3nc4cc(-c5cccc(C(F)(F)F)c5)ccc4[nH]3)cn12 [Example 104, 5-Ethyl-imidazo[1,2-a]pyridine-2-carboxylic acid [5-(3-trifluoromethyl-phenyl)-1H-benzoimidazol-2-yl]-amide] | 0.31 |
| Cc1ccc(-c2ccc3[nH]c(NC(=O)c4cn5c(C)cccc5n4)nc3c2)cc1 [Example 120, 5-Methyl-imidazo[1,2-a]pyridine-2-carboxylic acid (5-p-tolyl-1H-benzoimidazol-2-yl)-amide] | 0.49 |
| O=C(Nc1nc2cc(-c3cccc(Cl)c3)ccc2[nH]1)c1cn2cc(OCCO)ccc2n1 [Example 9, 6-(2-Hydroxy-ethoxy)-imidazo[1,2-a]pyridine-2-carboxylic acid [5-(3-chloro-phenyl)-1H-benzoimidazol-2-yl]-amide] | 0.3 |
| O=C(Nc1nc2cc(-c3cccc(C(F)(F)F)c3)ccc2[nH]1)c1cn2c(Br)cccc2n1 [Example 111, 5-Bromo-imidazo[1,2-a]pyridine-2-carboxylic acid [5-(3-trifluoromethyl-phenyl)-1H-benzoimidazol-2-yl]-amide] | 0.22 |
| CO[C@@H]1CCN(c2ccc3nc(C(=O)Nc4nc5cc(-c6cc(F)cc(Cl)c6)ccc5[nH]4)cn3c2C)C1 [Example 236, 6-((R)-3-Methoxy-pyrrolidin-1-yl)-5-methyl-imidazo[1,2-a]pyridine-2-carboxylic acid [5-(3-chloro-5-fluoro-phenyl)-1H-benzoimidazol-2-yl]-amide] | 0.25 |
| O=C(Nc1nc2cc(-c3cccc(C(F)(F)F)c3)ccc2[nH]1)c1cn2cccc(CN3CCOCC3)c2n1 [Example 198, 8-Morpholin-4-ylmethyl-imidazo[1,2-a]pyridine-2-carboxylic acid [5-(3-trifluoromethyl-phenyl)-1H-benzoimidazol-2-yl]-amide] | 1.14 |
| Cc1cccn2cc(C(=O)Nc3nc4cc(-c5cc(F)cc(C(F)(F)F)c5)ccc4[nH]3)nc12 [Example 95, 8-Methyl-imidazo[1,2-a]pyridine-2-carboxylic acid [5-(3-fluoro-5-trifluoromethyl-phenyl)-1H-benzoimidazol-2-yl]-amide] | 0.32 |
| CN1CCN(c2cc(F)cn3cc(C(=O)Nc4nc5cc(-c6cc(F)cc(Cl)c6)ccc5[nH]4)nc23)CC1 [Example 128, 6-Fluoro-8-(4-methyl-piperazin-1-yl)-imidazo[1,2-a]pyridine-2-carboxylic acid [5-(3-chloro-5-fluoro-phenyl)-1H-benzoimidazol-2-yl]-amide] | 0.31 |
| O=C(Nc1nc2cc(-c3cccc(Cl)c3)ccc2[nH]1)c1cn2cc(N3CC[C@H](O)C3)ccc2n1 [Example 232, 6-((S)-3-Hydroxy-pyrrolidin-1-yl)-imidazo[1,2-a]pyridine-2-carboxylic acid [5-(3-chloro-phenyl)-1H-benzoimidazol-2-yl]-amide] | 0.14 |
| O=C(Nc1nc2cc(-c3cccc(OC(F)(F)F)c3)ccc2[nH]1)c1cn2cc(F)cc(N3CCNCC3)c2n1 [Example 134, 6-Fluoro-8-piperazin-1-yl-imidazo[1,2-a]pyridine-2-carboxylic acid [5-(3-trifluoromethoxy-phenyl)-1H-benzoimidazol-2-yl]-amide] | 0.29 |
| Cc1cccc2nc(C(=O)Nc3nc4cc(-c5ccc(S(C)(=O)=O)cc5)ccc4[nH]3)cn12 [Example 73, 5-Methyl-imidazo[1,2-a]pyridine-2-carboxylic acid [5-(4-methanesulfonyl-phenyl)-1H-benzoimidazol-2-yl]-amide] | 1.24 |
| CN1CCN(Cc2ccc3nc(C(=O)Nc4nc5cc(-c6cccc(C(F)(F)F)c6)ccc5[nH]4)cn3c2)CC1 [Example 183, 6-(4-Methyl-piperazin-1-ylmethyl)-imidazo[1,2-a]pyridine-2-carboxylic acid [5-(3-trifluoromethyl-phenyl)-1H-benzoimidazol-2-yl]-amide] | 0.56 |
| O=C(Nc1nc2cc(-c3cc(F)cc(Cl)c3)ccc2[nH]1)c1cn2c(C(=O)NC3CCNCC3)cccc2n1 [Example 225, Imidazo[1,2-a]pyridine-2,5-dicarboxylic acid 2-{[5-(3-chloro-5-fluoro-phenyl)-1H-benzoimidazol-2-yl]-amide} 5-piperidin-4-ylamide] | 0.48 |
| Cc1cccn2cc(C(=O)Nc3nc4cc(OCc5ccc(C(F)(F)F)cc5)ccc4[nH]3)nc12 [Example 22, 8-Methyl-imidazo[1,2-a]pyridine-2-carboxylic acid [5-(4-trifluoromethyl-benzyloxy)-1H-benzoimidazol-2-yl]-amide] | 0.19 |
| COc1cc(F)ccc1-c1ccc2[nH]c(NC(=O)c3cn4c(C)cccc4n3)nc2c1 [Example 105, 5-Methyl-imidazo[1,2-a]pyridine-2-carboxylic acid [5-(4-fluoro-2-methoxy-phenyl)-1H-benzoimidazol-2-yl]-amide] | 1.79 |
| Cc1cc(OCCN2CCN(C)CC2)c2nc(C(=O)Nc3nc4cc(-c5cc(F)cc(Cl)c5)ccc4[nH]3)cn2c1 [Example 150, 6-Methyl-8-[2-(4-methyl-piperazin-1-yl)-ethoxy]-imidazo[1,2-a]pyridine-2-carboxylic acid [5-(3-chloro-5-fluoro-phenyl)-1H-benzoimidazol-2-yl]-amide] | 0.46 |
| Cc1cccn2cc(C(=O)Nc3nc4cc(-c5cc(F)cc(Cl)c5)ccc4[nH]3)nc12 [Example 57, 8-Methyl-imidazo[1,2-a]pyridine-2-carboxylic acid [5-(3-chloro-5-fluoro-phenyl)-1H-benzoimidazol-2-yl]-amide] | 0.4 |
